{"source": "patent US20070054965A1", "about": "“AMPK activating agent” (Kao Corporation, priority 2005, published 2007)", "key": {"[1]": {"assay": "Endurance-enhancing and antifatigue effects, maximum swimming time of mice in a current water pool", "format": "in vivo", "conditions": "for Maximum swimming time: 7 L/min, Balb/c male mice", "protocol": "The endurance-enhancing and antifatigue effects of nootkatone were evaluated as described below. Nootkatone used was a product of Avocado.\nThe endurance-enhancing and antifatigue effects were evaluated according to the measurement method of maximum swimming time of mice (Reference: Am J Physiol Regul Integr Comp Physiol, Vol. 288, R708-R715, 2005) in a current water pool. The experimental pool used was a clear acrylic pool (90 cm long×45 cm wide×45 cm deep) filled to a depth of 38 cm with water maintained at 34° C. with a heater. The current in the pool was generated with a pump (C-P60H, manufactured by Hitachi), and the current speed was adjusted by connecting Water flowmeter (Tofco) to the pump and opening and closing a valve. The current speed was measured with a digital current meter (SV-101-25S, Sankou Seimitsu Kogyo).\nExperimental animals used were 5-week-old Balb/c male mice (Charles River Laboratories, Inc.). The mice were preliminarily raised for 1 week under a constant raising environment (23±2° C., light period: 7 a.m. to 7 p.m.) and acclimated. In subsequent 1-week training, the mice were accustomed to swimming exercise three times a week (subjected to swimming exercise for 30 minutes at a current speed of 5 L/min on the first day, and for 30 minutes at a current speed of 6 L/min on the third and fifth days). […] The mice were divided into 2 groups, a test diet group and a control diet group, each containing 8 mice, to prevent a difference in maximum swimming time between the groups. Diets prepared in the formulation composition shown in Table 8 were used to raise the mice for 10 weeks. During this period, the measurement of maximum swimming time (7 L/min) and training (6 L/min, 30 minutes) were performed once every week."}, "[2]": {"system": "lipid metabolism activity (β-oxidation activity)", "assay": "Lipid metabolism activity (β-oxidation activity) of liver and skeletal muscle after oral administration", "format": "in vivo, mice", "protocol": "Seven-week-old Balb/c male mice were divided into 2 groups, to which a physiological saline (control) or nootkatone at 200 mg/kg of body weight was then orally administered for 10 consecutive days. Then, their livers and skeletal muscles (gastrocnemius muscle+soleus muscle) were collected. The livers and skeletal muscles were respectively homogenized in a buffer (250 mM sucrose, 1 mM EDTA in 10 mM HEPES (pH 7.2)), and the insoluble tissue residues were removed by centrifugation to obtain supernatants. The obtained supernatants were measured for protein levels. The protein levels were adjusted among samples to constant levels, and the samples were used in the measurement of lipid metabolism activity (β-oxidation activity). A 100-μg aliquot of the supernatant protein was reacted at 37° C. for 20 minutes with 0.1 μCi [^14C]-palmitic acid in a buffer (50 mM Tris-HCl (pH 8.0), 40 mM NaCl, 2 mM KCl, 2 mM MgCl2, 1 mM DTT, 5 mM ATP, 0.2 mM L-carnitine, 0.2 mM NAD, 0.06 mM FAD, 0.12 mM CoA, 3 mM α-cyclodextrin) at the final volume of 200 μL. The reaction was terminated with 200 μL of 0.6 N perchloric acid, and the unreacted [^14C]-palmitic acid was removed 3 times with 1 mL hexane. Lipid-degrading activity was measured by measuring radioactivity of the aqueous layer.\nThe degree of the lipid-degrading activity was indicated as a relative value to that of the control defined as 100."}, "[3]": {"system": "AMPKβ", "assay": "AMPK-activating action in C2C12 muscle cells, AMPKβ phosphorylation (Western blot)", "format": "cell-based, murine", "conditions": "60 minutes, relative value to control defined as 100", "protocol": "(§1) A muscle cell line (C2C12) was used to evaluate the AMPK-activating action of nootkatone according to the procedures below with AMPKα and AMPKβ phosphorylation as indexes.\nCells of the murine muscle cell line (C2C12) were seeded onto a 25 cm^2 flask and cultured in DMEM (+10% FBS, +antimicrobial agent) at 37° C. for 1 to 2 days. When the cells became confluent, the culture solution was removed, and the cells were washed with PBS (−) and further cultured for 7 to 8 days in fresh DMEM (2% (V/V) horse serum), which was in turn replaced by a fresh culture solution every 2 to 3 days. The culture solution was then removed, and the cells were washed with PBS (−) and further cultured in fresh DMEM (−FBS) for 1 day. After the removal of the culture solution, the cells were cultured in DMEM (−FBS) containing a predetermined concentration of nootkatone (obtained from Wako Pure Chemical Industries, Ltd.) for 60 minutes. […]\n(§2) The concentration of the supernatant protein was measured, and the protein concentrations were then adjusted among samples to constant concentrations. […]\n(§3) Predetermined amounts (approximately 20 to 40 μg) of the samples for electrophoresis were subjected to SDS-PAGE (12% gel) and transferred to a membrane. Then, phospho-AMPKα and phospho-AMPKβ were detected by using anti-phospho-AMPKα ([…]) antibodies (manufactured by Cell Signaling Technology, Inc.) or anti-phospho-AMPKβ (Ser108) antibodies (manufactured by Cell Signaling Technology, Inc.) as primary antibodies, anti-rabbit-HRP antibodies (manufactured by Amersham Biosciences) as secondary antibodies, and Phototope-HRP Western Detection System (manufactured by Cell Signaling Technology, Inc.) as a detection reagent. The degree of AMPK activation was indicated as a relative value to that of a control (sample-free group) defined as 100 by digitizing (pixelizing) detected band strength by image analysis (EDAS290 image analysis system; KODAK)."}, "[4]": {"assay": "Antiobesity, antidiabetic and antilifestyle-related disease effects in C57BL/6 mice raised on high-fat diet", "format": "in vivo", "protocol": "The antiobesity, antidiabetic, and antilifestyle-related disease effects of nootkatone were evaluated as described below.\nSeven-week-old C57BL/6 male mice were divided into 3 groups each containing 10 mice and raised with each diet of the composition described in Table 2.\nTwenty-two weeks later, their body weights were measured, while blood was collected from the mice under ether anesthesia and under non-fasting conditions to measure serum glucose, cholesterol, triglyceride, insulin, and leptin levels. The amount of visceral fat (epididymal fat, retroperitoneal fat, and perirenal fat) was also measured."}, "[5]": {"system": "AMPKα", "assay": "AMPK-activating action in C2C12 muscle cells, AMPKα phosphorylation (Western blot)", "format": "cell-based, murine", "conditions": "for Phospho-AMPKα: 60 minutes, C2C12, relative value to control defined as 100", "protocol": "as §1\nCells of the murine muscle cell line (C2C12) were seeded onto a 25 cm^2 flask and cultured in DMEM (+10% FBS, +antimicrobial agent) at 37° C. for 1 to 2 days. When the cells became confluent, the culture solution was removed, and the cells were washed with PBS (−) and further cultured for 7 to 8 days in fresh DMEM (2% (V/V) horse serum), which was in turn replaced by a fresh culture solution every 2 to 3 days. The culture solution was then removed, and the cells were washed with PBS (−) and further cultured in fresh DMEM (−FBS) for 1 day. After the removal of the culture solution, the cells were cultured in DMEM (−FBS) containing a predetermined concentration of nootkatone (obtained from Wako Pure Chemical Industries, Ltd.) for 60 minutes. After the culture solution was subsequently removed and the cells were washed with PBS (−), 200 μL of cell lysis solution (10 mmol/L Tris (pH 7.4), 50 mmol/L sodium chloride, 30 mmol/L sodium pyrophosphate, 0.5% (V/V) Triton X-100, protease inhibitor cocktail (SIGMA P2714), phosphatase inhibitor cocktail-1 (SIGMA P2850), phosphatase inhibitor cocktail-2 (SIGMA P5726)) was added and the cell lysis solution was collected with a cell scraper. The collected cell lysis solution was well homogenized by passing it through a syringe with a 23G needle three times and then left on ice for 30 minutes. The homogenate was centrifuged at 15000 r/min at 4° C. for 15 minutes, and the resulting supernatant protein was used in the measurement below.\nas §2, §3"}, "[6]": {"conditions": "Group 3 (0.5% nootkatone), 22 weeks"}, "[7]": {"conditions": "Group 3: high-fat diet with 0.5% nootkatone, 22 weeks, C57BL/6 male mice"}, "[8]": {"conditions": "serum, non-fasting, Group 3: high-fat diet with 0.5% nootkatone, 22 weeks"}}}
{"molecule": "C=C(C)[C@@H]1CCC2=CC(=O)C[C@@H](C)[C@]2(C)C1", "note": "(stereo in doubt) [Nootkatone, 4,4a,5,6,7,8-hexahydro-6-isopropenyl-4,4a-dimethyl-2(3H)-naphthalenone]", "values": [{"measurement": "Maximum swimming time", "setting": "[1]; after 10 week raising on test diet with 0.2% nootkatone", "result": "40.01 ± 3.17", "unit": "min"}, {"measurement": "Maximum swimming time", "setting": "[1]; before raising (baseline of test diet group)", "result": "27.31 ± 1.72", "unit": "min"}, {"measurement": "Maximum swimming time after 10-week raising", "setting": "[1]; test diet containing nootkatone as compared with the control diet group", "result": "significantly prolonged"}, {"measurement": "Lipid-degrading activity (β-oxidation activity), skeletal muscle", "setting": "[2]; 200 mg/kg orally for 10 consecutive days, Balb/c male mice, gastrocnemius + soleus muscle, relative value to control defined as 100", "result": 271}, {"measurement": "Lipid-degrading activity (β-oxidation activity), liver", "setting": "[2]; 200 mg/kg orally for 10 consecutive days, Balb/c male mice, relative value to control defined as 100", "result": 273}, {"measurement": "Lipid-degrading activity (β-oxidation activity) of the liver and skeletal muscle", "setting": "[2]; mice given nootkatone 200 mg/kg, 10 days, versus control", "result": "remarkably increased"}, {"measurement": "Phospho-AMPKβ", "setting": "[3]; nootkatone 50 μmol/L", "result": 241}, {"measurement": "Phospho-AMPKβ", "setting": "[3]; nootkatone 100 μmol/L", "result": 314}, {"measurement": "Phospho-AMPKβ", "setting": "[3]; nootkatone 150 μmol/L", "result": 358}, {"measurement": "Increment of body weights and amount of visceral fat", "setting": "[4]; Group 3 (0.5% nootkatone) as compared with Group 2", "result": "remarkably reduced"}, {"measurement": "Effect on rise in blood cholesterol level", "setting": "[4]; [6]", "result": "excellent inhibitory effect"}, {"measurement": "Effect on rise in blood insulin level", "setting": "[4]; [6]", "result": "excellent inhibitory effect"}, {"measurement": "Effect on rise in blood leptin level", "setting": "[4]; [6]", "result": "excellent inhibitory effect"}, {"measurement": "Effect on rise in blood triglyceride level", "setting": "[4]; [6]", "result": "excellent inhibitory effect"}, {"measurement": "Effect on rise in blood-glucose level", "setting": "[4]; [6]", "result": "excellent inhibitory effect"}, {"measurement": "Body weight", "setting": "[4]; [7]", "result": 30.4, "unit": "g"}, {"measurement": "Epididymal fat", "setting": "[4]; [7]", "result": 0.47, "unit": "g"}, {"measurement": "Perirenal fat", "setting": "[4]; [7]", "result": 0.07, "unit": "g"}, {"measurement": "Retroperitoneal fat", "setting": "[4]; [7]", "result": 0.15, "unit": "g"}, {"measurement": "Glucose", "setting": "[4]; [8]", "result": 212.3, "unit": "mg/dL"}, {"measurement": "Insulin", "setting": "[4]; [8]", "result": 1.26, "unit": "ng/mL"}, {"measurement": "Leptin", "setting": "[4]; [8]", "result": 6.2, "unit": "ng/mL"}, {"measurement": "Total cholesterol", "setting": "[4]; [8]", "result": 131.3, "unit": "mg/dL"}, {"measurement": "Triglyceride", "setting": "[4]; [8]", "result": 54.3, "unit": "mg/dL"}, {"measurement": "AMPK-activating action in the muscle cells", "setting": "[5]; C2C12, summary of Table 1", "result": "strong AMPK-activating action"}, {"measurement": "Phospho-AMPKα", "setting": "[5]; nootkatone 50 μmol/L", "result": 402}, {"measurement": "Phospho-AMPKα", "setting": "[5]; nootkatone 100 μmol/L", "result": 952}, {"measurement": "Phospho-AMPKα", "setting": "[5]; nootkatone 150 μmol/L", "result": 1077}]}
